Usually IC50 stands for the concentration that inhibits the measured activity by half. Usually EC50 stands for the midpoint of the concentration-response curve.

Results on 16 compounds are retold here after US9505749B2, “Quinazolinone compounds and derivatives thereof” (AMGEN INC., priority 2012, dated 2016).

Experiment [1] has as its target 6×HIS-tankyrase 2 (946-1162) (Homo sapiens (Human), UniProt Q9H2K2). Nature of the experiment: Tankyrase 2 biochemical assay (AlphaLisa, PARsylation). The conditions noted are these: 250 nM NAD; read-out: TNKS2 IC50. (In general: Alpha assays give light when donor and acceptor beads are brought close together.)
Experiment [2] relates to Axin2 accumulation in SW480 cells. Nature of the experiment: Axin2 384 immunofluorescence assay. The conditions noted are these: Homo sapiens, read-out: Axin2 384 IF EC50. Format: cell-based.
The target in a further experiment is PARP1 (Homo sapiens (Human), UniProt P09874). Nature of the experiment: PARP1 biochemical assay (Trevigen kit). The source says:
PARP1 biochemical assay was purchased as a kit from Trevigen (cat.#4676-096-K) and used per manufacturers recommendations.

A further experiment concerns the target PARP2 (Homo sapiens (Human), UniProt Q9UGN5). Kind of experiment: PARP2 biochemical assay (BPS kit).
Experiment [3] deals with total β-catenin in SW480 colorectal cells. Nature of the experiment: Total β-catenin MSD 96-well plate assay for SW480 cells. The conditions noted are these: Homo sapiens, SW480, read-out: SW480-Total beta-catenin (TBC) IC50 IP.
Experiment [4] deals with 6×HIS-tankyrase1 (1091-1325) (Homo sapiens (Human), UniProt O95271). Nature of the experiment: Tankyrase 1 biochemical assay (AlphaLisa, PARsylation). To be noted: 400 nM NAD, 60 minutes at RT; read-out: TNKS1 IC50.

Where two headings read alike, the source gives them in different places.

Sequence of PARP2 (Q9UGN5 whole entry): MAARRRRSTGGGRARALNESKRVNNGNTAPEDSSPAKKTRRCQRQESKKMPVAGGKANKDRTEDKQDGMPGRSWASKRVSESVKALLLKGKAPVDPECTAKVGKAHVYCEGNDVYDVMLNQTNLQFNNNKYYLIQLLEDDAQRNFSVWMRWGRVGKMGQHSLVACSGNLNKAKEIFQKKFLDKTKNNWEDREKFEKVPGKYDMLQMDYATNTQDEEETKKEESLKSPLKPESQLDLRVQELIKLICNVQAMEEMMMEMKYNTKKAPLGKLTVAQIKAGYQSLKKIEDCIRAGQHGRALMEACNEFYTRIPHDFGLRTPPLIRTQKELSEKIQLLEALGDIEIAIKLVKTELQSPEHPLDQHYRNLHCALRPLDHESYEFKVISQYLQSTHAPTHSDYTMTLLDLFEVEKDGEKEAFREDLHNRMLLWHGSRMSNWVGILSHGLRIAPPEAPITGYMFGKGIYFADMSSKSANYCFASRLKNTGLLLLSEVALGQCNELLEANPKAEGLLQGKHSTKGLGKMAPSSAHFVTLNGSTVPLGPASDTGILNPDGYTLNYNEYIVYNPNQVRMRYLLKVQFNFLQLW
Sequence of 6×HIS-tankyrase1 (1091-1325) (O95271 1091-1325): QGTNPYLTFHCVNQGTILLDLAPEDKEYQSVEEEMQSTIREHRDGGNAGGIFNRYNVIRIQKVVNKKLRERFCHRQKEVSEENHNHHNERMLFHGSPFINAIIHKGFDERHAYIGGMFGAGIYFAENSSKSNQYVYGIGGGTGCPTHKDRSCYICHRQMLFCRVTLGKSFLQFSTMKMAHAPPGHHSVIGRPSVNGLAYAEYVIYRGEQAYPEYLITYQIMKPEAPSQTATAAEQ
Sequence of 6×HIS-tankyrase 2 (946-1162) (Q9H2K2 946-1162): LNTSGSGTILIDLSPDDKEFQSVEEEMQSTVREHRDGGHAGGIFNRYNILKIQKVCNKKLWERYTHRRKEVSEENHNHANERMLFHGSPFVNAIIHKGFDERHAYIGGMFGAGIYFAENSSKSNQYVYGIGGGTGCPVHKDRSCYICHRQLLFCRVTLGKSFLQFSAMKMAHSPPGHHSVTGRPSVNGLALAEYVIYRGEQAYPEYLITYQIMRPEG
Sequence of PARP1 (P09874 whole entry): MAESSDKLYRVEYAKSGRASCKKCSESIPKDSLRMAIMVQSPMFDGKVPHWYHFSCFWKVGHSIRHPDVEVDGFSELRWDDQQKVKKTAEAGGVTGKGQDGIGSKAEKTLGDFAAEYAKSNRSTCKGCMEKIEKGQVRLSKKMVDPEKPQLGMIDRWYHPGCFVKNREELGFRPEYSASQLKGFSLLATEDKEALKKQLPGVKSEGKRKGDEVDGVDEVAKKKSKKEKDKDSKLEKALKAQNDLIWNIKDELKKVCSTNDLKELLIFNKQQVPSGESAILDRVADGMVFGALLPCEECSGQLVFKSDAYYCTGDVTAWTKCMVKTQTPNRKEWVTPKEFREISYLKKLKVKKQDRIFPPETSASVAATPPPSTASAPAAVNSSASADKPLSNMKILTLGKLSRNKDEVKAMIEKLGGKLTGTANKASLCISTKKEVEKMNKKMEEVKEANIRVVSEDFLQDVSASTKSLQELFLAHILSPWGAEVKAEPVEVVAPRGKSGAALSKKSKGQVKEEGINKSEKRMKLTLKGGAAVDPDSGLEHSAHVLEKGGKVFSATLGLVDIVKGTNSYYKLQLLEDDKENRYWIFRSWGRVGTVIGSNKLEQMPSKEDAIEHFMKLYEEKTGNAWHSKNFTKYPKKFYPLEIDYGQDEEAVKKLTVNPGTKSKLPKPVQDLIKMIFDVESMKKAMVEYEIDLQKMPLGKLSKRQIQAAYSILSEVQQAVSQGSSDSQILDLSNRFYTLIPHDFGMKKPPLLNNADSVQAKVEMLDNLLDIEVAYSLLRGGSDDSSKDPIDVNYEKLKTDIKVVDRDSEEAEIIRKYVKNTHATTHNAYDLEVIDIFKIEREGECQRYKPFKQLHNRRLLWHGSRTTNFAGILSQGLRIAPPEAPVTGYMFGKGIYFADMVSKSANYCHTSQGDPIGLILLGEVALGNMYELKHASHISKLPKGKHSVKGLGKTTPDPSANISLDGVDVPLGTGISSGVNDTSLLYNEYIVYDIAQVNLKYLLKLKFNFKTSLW

For `O=C(CCc1nc2ccccc2c(=O)[nH]1)N[C@H]1CC[C@H](c2nnc(-c3ccc(F)cc3)o2)CC1` [Example 127, N-((1r,4r)-4-(5-(4-fluorophenyl)-1,3,4-oxadiazol-2-yl)cyclohexyl)-3-(4-oxo-3,4-dihydroquinazolin-2-yl)propanamide], the IC50 was found to be 12.7 nM in experiment [1], 1970 nM on PARP1, 2310 nM against PARP2 and 157 nM in experiment [3]. Further, the EC50 in experiment [2] (SW480 cells, 24 hours) was 307 nM.

Consider `O=C(CCSc1nc2ccccc2c(=O)[nH]1)N[C@H]1C[C@H](c2nnc(-c3ccccc3)o2)C1` [Example 40, 3-((4-oxo-3,4-dihydroquinazolin-2-yl)thio)-N-((1r,3r)-3-(5-phenyl-1,3,4-oxadiazol-2-yl)cyclobutyl)propanamide], for which the IC50 came to 0.0891 nM in experiment [4] and 3970 nM against PARP2.

Consider `O=C(CCCc1nc2ccccc2c(=O)[nH]1)N[C@H]1CC[C@H](c2nnc(-c3ccc(F)cc3)o2)CC1` [Example 28, N-(trans-4-(5-(4-fluorophenyl)-1,3,4-oxadiazol-2-yl)cyclohexyl)-4-(4-oxo-3,4-dihydro-2-quinazolinyl)butanamide], for which the half-inhibitory concentration (IC50) was determined as 0.303 nM in experiment [1], 1760 nM at PARP2 and 15.9 nM in experiment [3]. For the same compound, in experiment [2] (SW480 cells, 24 hours), the EC50 turned out to be 18.5 nM.

Turning to `O=C(CC[S+]([O-])c1nc2ccccc2c(=O)[nH]1)N[C@H]1CC[C@H](c2nnc(-c3ccccc3)o2)CC1` (some centres unmarked) [Example 143, 3-((4-oxo-3,4-dihydroquinazolin-2-yl)sulfinyl)-N-((1r,4r)-4-(5-phenyl-1,3,4-oxadiazol-2-yl)cyclohexyl)propanamide], the IC50 in experiment [4] turned out to be 17.9 nM; in experiment [1] it was 52.3 nM; in experiment [3] it was 929 nM. In addition, the EC50 in experiment [2] (SW480 cells, 24 hours) was 970 nM.

`O=C(CCCc1nc2ccccc2c(=O)[nH]1)N1CCC(n2cc(-c3ccccc3)[nH]c2=O)CC1` [Example 49, 2-(4-oxo-4-(4-(2-oxo-4-phenyl-2,3-dihydro-1H-imidazol-1-yl)-1-piperidinyl)butyl)-4(3H)-quinazolinone trifluoroacetic acid]: the IC50 in experiment [4] came to 118 nM; in experiment [3], 530 nM. For the same compound, the EC50 in experiment [2] (SW480, 24 h) was determined as 5330 nM.

Regarding `O=C(CCSc1nc2ccccc2c(=O)[nH]1)N[C@H]1CC[C@H](c2nnc(-c3ccc(F)cc3)o2)CC1` [Example 117, N-((1r,4r)-4-(5-(4-fluorophenyl)-1,3,4-oxadiazol-2-yl)cyclohexyl)-3-((4-oxo-3,4-dihydroquinazolin-2-yl)thio)propanamide], the results for the IC50 in experiment [4], in experiment [1] and in experiment [3] were 0.269 nM, 3.98 nM and 1.23 nM, respectively. The EC50 in experiment [2] (SW480 cells, 24 hours) worked out at 2.78 nM.

Regarding `O=C(CCc1nc2ccccc2c(=O)[nH]1)N[C@H]1CC[C@H](c2nnc(-c3ccccc3Cl)o2)CC1` [Example 128, N-((1r,4r)-4-(5-(2-chlorophenyl)-1,3,4-oxadiazol-2-yl)cyclohexyl)-3-(4-oxo-3,4-dihydroquinazolin-2-yl)propanamide], the IC50 in experiment [1] was 81.3 nM; at PARP1, 3890 nM; on PARP2, 276 nM; in experiment [3], 592 nM. The EC50 in experiment [2] (SW480 cells, 24 hours) amounted to 1750 nM.

Take `O=C(CCc1nc2ccccc2c(=O)[nH]1)N[C@H]1CC[C@H](c2nnc(Cc3ccccc3)o2)CC1` [Example 139, N-((1r,4r)-4-(5-benzyl-1,3,4-oxadiazol-2-yl)cyclohexyl)-3-(4-oxo-3,4-dihydroquinazolin-2-yl)propanamide]: the half-inhibitory concentration (IC50) in experiment [1] is 624 nM; against PARP1 it was 8220 nM; on PARP2, 1130 nM. Moreover, in experiment [2] (SW480 cells, 24 hours), the EC50 was > 25000 nM.

On to `CC(C)(c1ccccc1)c1nnc([C@H]2CC[C@H](NC(=O)CCc3nc4ccccc4c(=O)[nH]3)CC2)o1` [Example 140, 3-(4-oxo-3,4-dihydroquinazolin-2-yl)-N-((1r,4r)-4-(5-(2-phenylpropan-2-yl)-1,3,4-oxadiazol-2-yl)cyclohexyl)propanamide], for which the IC50 was 1210 nM in experiment [4], 7450 nM at PARP1 and 1290 nM on PARP2.

On to `N#Cc1ccc(-c2nnc([C@H]3CC[C@H](NC(=O)CCc4nc5ccccc5c(=O)[nH]4)CC3)o2)cc1` [Example 134, N-((1r,4r)-4-(5-(4-cyanophenyl)-1,3,4-oxadiazol-2-yl)cyclohexyl)-3-(4-oxo-3,4-dihydroquinazolin-2-yl)propanamide], for which the IC50 in experiment [1] came out at 14.2 nM; against PARP2, 2110 nM; in experiment [3], 253 nM.

With `O=C(CCc1nc2ccc(F)cc2c(=O)[nH]1)N[C@H]1CC[C@H](c2nnc(-c3ccccc3)o2)CC1` [Example 101, 3-(6-fluoro-4-oxo-3,4-dihydroquinazolin-2-yl)-N-((1r,4r)-4-(5-phenyl-1,3,4-oxadiazol-2-yl)cyclohexyl)propanamide], the IC50 in experiment [1] was determined as 15.2 nM; on PARP1, 936 nM; against PARP2 it was 421 nM; in experiment [3], 252 nM. Besides, in experiment [2] (SW480 cells, 24 hours), the concentration giving a half-maximal response (EC50) turned out to be 783 nM.

As for `O=C(CCc1nc2ccccc2c(=O)[nH]1)N[C@H]1CC[C@H](c2nnc(-c3cccnc3)o2)CC1` [Example 136, 3-(4-oxo-3,4-dihydroquinazolin-2-yl)-N-((1r,4r)-4-(5-(pyridin-3-yl)-1,3,4-oxadiazol-2-yl)cyclohexyl)propanamide], the IC50 turned out to be 32.7 nM in experiment [1], 10800 nM on PARP1, 1060 nM against PARP2 and 960 nM in experiment [3]. Besides, the EC50 in experiment [2] (SW480 cells, 24 hours) is 1190 nM.

Take `O=C(CCc1nc2ccccc2c(=O)[nH]1)N[C@H]1CC[C@H](c2nnc(-c3cccc(F)c3)o2)CC1` [Example 129, N-((1r,4r)-4-(5-(3-fluorophenyl)-1,3,4-oxadiazol-2-yl)cyclohexyl)-3-(4-oxo-3,4-dihydroquinazolin-2-yl)propanamide]: the IC50 was found to be 12.8 nM in experiment [1], 1090 nM on PARP1, 1960 nM against PARP2 and 124 nM in experiment [3]. In addition, in experiment [2] (SW480 cells, 24 hours), the EC50 is 435 nM.

As for `O=C(CCc1nc2ccccc2c(=O)[nH]1)N[C@H]1CC[C@H](c2nnc(-c3cccc(Cl)c3)o2)CC1` [Example 130, N-((1r,4r)-4-(5-(3-chlorophenyl)-1,3,4-oxadiazol-2-yl)cyclohexyl)-3-(4-oxo-3,4-dihydroquinazolin-2-yl)propanamide], the IC50 in experiment [1] came to 7.92 nM; against PARP1, 998 nM; against PARP2, 944 nM; in experiment [3], 110 nM. Also, the EC50 in experiment [2] (SW480 cells, 24 hours) stood at 240 nM.

Take `O=C(CCc1nc2ccccc2c(=O)[nH]1)N[C@H]1CC[C@H](c2nnc(-c3ccccn3)o2)CC1` [Example 131, 3-(4-oxo-3,4-dihydroquinazolin-2-yl)-N-((1r,4r)-4-(5-(pyridin-2-yl)-1,3,4-oxadiazol-2-yl)cyclohexyl)propanamide]: the figures for the IC50 (in experiment [1]; on PARP1; in experiment [3]) were 187 nM, 5650 nM and 1770 nM, respectively. The EC50 in experiment [2] (SW480 cells, 24 hours) came to 12100 nM.

In the case of `O=C(CCc1nc2ccccc2c(=O)[nH]1)N[C@H]1CC[C@H](c2nnc(-c3cnccn3)o2)CC1` [Example 142, 3-(4-oxo-3,4-dihydroquinazolin-2-yl)-N-((1r,4r)-4-(5-(pyrazin-2-yl)-1,3,4-oxadiazol-2-yl)cyclohexyl)propanamide], the IC50 came out at 203 nM in experiment [1], 5470 nM against PARP1 and 1700 nM against PARP2. In addition, the EC50 in experiment [2] (SW480 cells, 24 hours) came to 6490 nM.
